Measured values as given in US7332279B2 (Glycozym APS, priority 1999, dated 2008).
Where two headings read alike, the source gives them in different places.

What was measured:
β3Gal-T5 [1] = target: T1, β3Gal-T5 (Homo sapiens, UniProt Q9Y2C3, M85T); test: Galactosyltransferase assay, partially purified secreted recombinant β3Gal-T5, saccharide acceptors; format: biochemical; conditions: for β3Gal-T5 activity, substrate concentration 1 mM: acceptor 1 mM; for β3Gal-T5 activity, substrate concentration 5 mM: acceptor 5 mM; for donor substrate utilisation by β3Gal-T5: with the acceptor substrates tested (data not shown)
T1 construct: designed to exclude the hydrophobic transmembrane segment and to encode amino acid residues 25-310; secretion signal of vector pAcGP67B (gp67); made in house; host or cells: baculovirus; Sf9 cells (media) and High Five cells (serum-free medium, partially purified)
T1 sequence (Q9Y2C3 25-310 M85T): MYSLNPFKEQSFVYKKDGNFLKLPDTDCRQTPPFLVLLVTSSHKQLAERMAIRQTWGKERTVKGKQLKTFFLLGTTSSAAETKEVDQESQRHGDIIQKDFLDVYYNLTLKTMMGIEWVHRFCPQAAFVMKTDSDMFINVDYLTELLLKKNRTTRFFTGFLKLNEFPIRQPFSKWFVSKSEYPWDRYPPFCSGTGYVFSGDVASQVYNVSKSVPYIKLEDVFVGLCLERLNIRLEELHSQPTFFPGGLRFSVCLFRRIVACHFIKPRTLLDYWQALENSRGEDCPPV
Excerpt: PCR product was cloned into the BamHI site of pAcGP67B (Pharmingen). […] This PCR product was cloned into the BamHI site of pVL1193 (Pharmingen). Both soluble and full length constructs were fully sequenced to confirm fidelity. Plasmids […]5-full were co-transfected with Baculo-GoldTM DNA (Pharmingen) as described previously (Bennett, […]. and Clausen, H. cDNA cloning and expression of a novel human UDP-N-acetyl-alpha-D-galactosamine. Polypeptide N-acetyl-galactosaminyl-transferase, GalNAc-T3. J. Biol. Chem. 271:17006-17012, 1996). Recombinant Baculo-virus were obtained after two successive amplifications in Sf9 cells grown in serum-containing medium, and titers of virus were estimated by titration in 24-well plates with monitoring of enzyme activities. […] J. Biol. […] J. Biol. […] Polypeptide N-acetyl-galactosaminyl-transferase, GalNAc-T3. J. Biol. Chem. 271:17006-17012, 1996). For large scale expression amplified virus was used to infect High FiveTM cells grown in serum-free media (Invitrogen) in upright roller bottles shaking at 140 rpm and 27° C. The kinetic properties were determined with partially purified, secreted forms of the enzymes. Semipurification of enzymes from serum-free medium of infected High-FiveTM cells was performed by sequential Amberlite, DEAE-Sephacel and 5-Sepharose chromatography as described previously ([…]., et al. […] J. Biol. Chem. 272:23503-23514, 1997). Comparisons of enzymes were performed relatively to the activity obtained with βGlcNAc-Bz1 (Tables II and III). Full length enzymes were assayed with 1% Triton CF54 homogenates of washed cells. […] Reaction products were quantified by Dowex-1 chromatography. […] P. and Clausen, H. […] J. Biol. Chem. 273:29295-29305, 1998). The transfer of Gal was evaluated after acid precipitation by filtration through Whatman GF/C glass fibre filters. […] Assays with glycolipid acceptors were conducted as previously described (Holmes, E. H. […] Arch Biochem Biophys 270:630-646, 1989) in reaction mixtures containing 2.5 μmol HEPES buffer, pH 7.2, μmol MnCl2, 100 μg taurodeoxycholate or Triton CF-54, 20 μg acceptor glycolipid, 15 nmol UDP-[^14C]-galactose (13,000 cpm/nmol) and enzyme in a total volume of 100 μl. Conditions for incubation and product isolation were as previously described (Id.).

β3Gal-T5 [2] = target: T1, β3Gal-T5; test: Galactosyltransferase assay with glycolipid acceptors, β3Gal-T5; format: biochemical; conditions: for β3Gal-T5 activity with glycolipid acceptor, Triton CF-54: 100 μg Triton CF-54/100 μl; for β3Gal-T5 activity with glycolipid acceptor, Triton CF-54 / β3Gal-T5 activity with glycolipid acceptor, TDOC: 20 μg glycolipid; for β3Gal-T5 activity with glycolipid acceptor, TDOC: 100 μg taurodeoxycholate/100 μl
Method: The kinetic properties were determined with partially purified, secreted forms of the enzymes. Semipurification of enzymes from serum-free medium of infected High-Five™ cells was performed by sequential Amberlite, DEAE-Sephacel and 5-Sepharose chromatography as described previously (Wandall, H. H., Hassan, H., Mirgorodskaya, E., et al. Substrate specificities of three. members of the human UDP-N-acetyl-alpha-D-galactosamine:Polypeptide Nacetylgalactosaminyltransferase family, GalNAc-T1, -T2, and -T3. J. Biol. Chem. 272:23503-23514, 1997). Comparisons of enzymes were performed relatively to the activity obtained with βGlcNAc-Bz1 (Tables II and III). Full length enzymes were assayed with 1% Triton CF54 homogenates of washed cells. Enzyme assays were performed in 50 μl total reaction mixtures containing 25 mM Cacodylate (pH 7.5), 10 mM MnCl2, 0.25% Triton X-100, 100 μM UDP-[^14C]-Gal (2,600 cpm/nmol) (Amersham), and varying concentrations of acceptor substrates (Sigma) (see Table I for structures). Reaction products were quantified by Dowex-1 chromatography. […] The transfer of Gal was evaluated after acid precipitation by filtration through Whatman GF/C glass fibre filters. […] Assays with glycolipid acceptors were conducted as previously described (Holmes, E. H. Characterization and membrane organization of beta 1-3- and beta 1-4-galactosyltransferases from human colonic adenocarcinoma cell lines Cob 205 and SW403: basis for preferential synthesis of type 1 chain lacto-series carbohydrate structures. Arch Biochem Biophys 270:630-646, 1989) in reaction mixtures containing 2.5 μmol HEPES buffer, pH 7.2, μmol MnCl2, 100 μg taurodeoxycholate or Triton CF-54, 20 μg acceptor glycolipid, 15 nmol UDP-[^14C]-galactose (13,000 cpm/nmol) and enzyme in a total volume of 100 μl. Conditions for incubation and product isolation were as previously described (Id.).

Molecule | β3Gal-T5 activity, substrate concentration 1 mM (β3Gal-T5 [1]) [nmol/min/mL] | β3Gal-T5 activity, substrate concentration 5 mM (β3Gal-T5 [1]) [nmol/min/mL] | other results
CC(=O)N[C@@H]1[C@@H](O)[C@H](O)[C@@H](CO)O[C@@H]1O [D-GIcNAc] | 0.5 | 1.2 | 
CC(=O)N[C@H]1[C@@H](OP(=O)(O)OP(=O)(O)OC[C@H]2O[C@@H](n3ccc(=O)[nH]c3=O)[C@H](O)[C@@H]2O)O[C@H](CO)[C@H](O)[C@@H]1O [UDP-GalNAc] |  |  | donor substrate utilisation by β3Gal-T5 (β3Gal-T5 [1]): did not utilize
CC(=O)N[C@H]1[C@@H](OP(=O)(O)OP(=O)(O)OC[C@H]2O[C@@H](n3ccc(=O)[nH]c3=O)[C@H](O)[C@@H]2O)O[C@H](CO)[C@@H](O)[C@@H]1O [UDPGlcNAc] |  |  | donor substrate utilisation by β3Gal-T5 (β3Gal-T5 [1]): did not utilize
O=[N+]([O-])c1ccccc1O[C@H]1O[C@H](CO)[C@H](O)[C@H](O)[C@H]1O [α-D-Gal-1-o-Nph] | 0.0 | 0.0 | 
CC(=O)N[C@H]1[C@@H](OCc2ccccc2)O[C@H](CO)[C@H](O)[C@@H]1O [α-D-GalNAc-Bzl] | 0.0 | 0.0 | 
CC(=O)N[C@H]1[C@@H](OCc2ccccc2)O[C@H](CO)[C@@H](O)[C@@H]1O [α-D-GlcNAc-Bzl] | 0.0 | 0.0 | 
O=[N+]([O-])c1ccccc1O[C@@H]1O[C@H](CO)[C@H](O)[C@H](O)[C@H]1O [β-D-Gal-1-o-Nph] | 0.0 | 0.0 | 
CC(=O)N[C@H]1[C@H](Oc2ccc3c(C)cc(=O)oc3c2)O[C@H](CO)[C@H](O)[C@@H]1O [β-D-GalNAc-Me-umb] | 0.0 | 0.0 | 
Cc1cc(=O)oc2cc(O[C@@H]3O[C@H](CO)[C@@H](O)[C@H](O)[C@H]3O)ccc12 [β-D-Glc-Me-umb] | 0.0 | 0.0 | 
CC(=O)N[C@H]1[C@H](Oc2ccc([N+](=O)[O-])cc2)O[C@H](CO)[C@@H](O)[C@@H]1O [β-D-GlcNAc-1-p-Nph] | 2.1 | 6.9 | 
CC(=O)N[C@@H]1[C@@H](O)[C@H](O)[C@@H](CO)O[C@H]1Sc1ccc([N+](=O)[O-])cc1 [β-D-GlcNAc-1-thio-p-Nph] | 1.1 | 3.4 | 
CC(=O)NC1C(OC2C(OCC3OC(O)C(O)C(OC4OC(CO)C(O)C(O)C4OC4OC(CO)C(O)C(O)C4NC(C)=O)C3O)OC(CO)C(O)C2O)OC(CO)C(O)C1O [β-D-GlcNAc-(1–2)-α-D-Man-(1–3)-[β-D-GlcNAc-(1–2)-α-D-Man-(1–6)-]D-Man] | 0.0 | 0.0 | 
CC(=O)NC1C(OC2C(O)OC(CO)C(O)C2O)OC(CO)C(O)C1O [β-D-GlcNAc-(1–2)-α-D-Man] | 0.0 | 3.0 | 
CO[C@@H]1O[C@H](CO)[C@H](O)[C@H](O[C@@H]2O[C@H](CO)[C@@H](O)[C@H](O)[C@H]2NC(C)=O)[C@H]1O [β-D-GlcNAc-(1–3)-β-D-Gal-1-Me] | 27.4 | 87.4 | Vmax (β3Gal-T5 [1]; Table V): 972.9 pmol/min; Km (β3Gal-T5 [1]; Table V, read-out: Km): 1800 µM; Km (β3Gal-T5 [1]; acceptor substrate, read-out: apparent Km of β3Gal-T5): 1800 µM
COC1OC(COC2OC(CO)C(O)C(O)C2NC(C)=O)C(O)C(O)C1O [β-D-GlcNAc-(1–6)-α-D-Man-1-Me] | 4.0 | 13.0 | 
CC(=O)N[C@H]1[C@H](Oc2ccc3c(C)cc(=O)oc3c2)O[C@H](CO)[C@@H](O)[C@@H]1O [β-D-GlcNAc-Me-umb] | 2.6 | 7.5 | 
Cc1cc(=O)oc2cc(O[C@@H]3OC[C@@H](O[C@@H]4O[C@H](CO)[C@H](O)[C@H](O)[C@H]4O)[C@H](O)[C@H]3O)ccc12 [β-Gal-(1–4)-β-D-Xyl-1-Me-umb] | 0.0 | 0.0 | 
GalNAcβ1-3Galα1-4Galβ1-4Glcβ1-Cer [Gβ4] |  |  | β3Gal-T5 activity with glycolipid acceptor, Triton CF-54 (β3Gal-T5 [2]): 0.09 µmol/h/mg; β3Gal-T5 activity with glycolipid acceptor, TDOC (β3Gal-T5 [2]): 0.6 µmol/h/mg
GalNAcβ1-4Galβ1-4Glcβ1-Cer [Gg3] |  |  | β3Gal-T5 activity with glycolipid acceptor, Triton CF-54 (β3Gal-T5 [2]): 0.005 µmol/h/mg; β3Gal-T5 activity with glycolipid acceptor, TDOC (β3Gal-T5 [2]): 0.09 µmol/h/mg
GlcNAcβ1-3Galβ1-4G1cNAcβ1-3Galβ1-4Glcβ1-Cer [nLC5] |  |  | activity, fold lower than with Lc3 (β3Gal-T5 [2]): ~3 fold; β3Gal-T5 activity with glycolipid acceptor, Triton CF-54 (β3Gal-T5 [2]): 0.4 µmol/h/mg; β3Gal-T5 activity with glycolipid acceptor, TDOC (β3Gal-T5 [2]): 1.6 µmol/h/mg
Glcβ1-Cer [GlcCer] |  |  | β3Gal-T5 activity with glycolipid acceptor, TDOC (β3Gal-T5 [2]): 0.04 µmol/h/mg
